`COc1cc(/C=C2\SC(=O)NC2=O)cc(I)c1O` yielded a melting point of 256 °C.

As for `O=C1NC(=O)/C(=C/c2ccc3cc(O)ccc3c2)S1`, the melting point was 310 to 314 °C.

Turning to `O=C1NC(=O)/C(=C/c2c[nH]c3ccc([N+](=O)[O-])cc23)S1`, the melting point was 330 to 333 °C.

Molecule `O=C1NC(=O)/C(=C/c2c(Cl)cccc2Cl)S1` registered a melting point of 152 to 154 °C. The same measure for `COc1cc(O)cc(OC)c1/C=C1\SC(=O)NC1=O`: 331 to 333 °C; for `Cc1cccc(C)c1/C=C1\SC(=O)NC1=O`: 104 to 105 °C. Consider `COc1cccc(OC)c1/C=C1\SC(=O)NC1=O`, for which the melting point is 241 to 242 °C. The same measure for `COc1cc(OCc2c(F)cccc2[N+](=O)[O-])cc(OC)c1/C=C1\SC(=O)NC1=O`: 255 to 256 °C; for `O=C1NC(=O)/C(=C/c2cc3ccccc3o2)S1`: 265 to 266 °C; for `CN(C)c1ccc(/C=C/C=C2\SC(=O)NC2=O)cc1`: 259 to 263 °C.

With `CC(/C=C1\SC(=O)NC1=O)=C\c1ccccc1`, the melting point lay within 203 to 210 °C. Turning to `O=C1NC(=O)/C(=C/C(Cl)=C/c2ccccc2)S1`, the melting point fell in the range of 251 to 254 °C. `O=C1NC(=O)/C(=C/c2cc3ccccc3[nH]c2=O)S1` returned a melting point of 338 to 347 °C.

`c1cc(COc2ccc3ccccc3c2)cc(-c2nnn[nH]2)c1` returned a melting point of 200 to 202 °C.

The values are drawn from US20090123563A1, “Pharmaceutical Preparations Comprising Insulin, Zinc Ions and Zinc-Binding Ligand” (NOVO NORDISK A/S, priority 2005, published 2009).
